Laboratory results reported in ChEMBL document CHEMBL1201862, “PubChem BioAssay data set” (2004).
Activity calls are given as the source filed them.

How the values were obtained:
[1] = molecular target: Aspartyl aminopeptidase (Plasmodium falciparum 3D7, UniProt Q8I2J3)
[2] = molecular target: Procathepsin L (Homo sapiens, UniProt P07711)
[3] = molecular target: Large T antigen (Simian virus 40, UniProt P03070); type: functional, Betapolyomavirus macacae;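 further: Confirmatory-stage PubChem screen for compounds that inhibit SV40 T antigen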
Chain of Large T antigen (P03070 whole entry): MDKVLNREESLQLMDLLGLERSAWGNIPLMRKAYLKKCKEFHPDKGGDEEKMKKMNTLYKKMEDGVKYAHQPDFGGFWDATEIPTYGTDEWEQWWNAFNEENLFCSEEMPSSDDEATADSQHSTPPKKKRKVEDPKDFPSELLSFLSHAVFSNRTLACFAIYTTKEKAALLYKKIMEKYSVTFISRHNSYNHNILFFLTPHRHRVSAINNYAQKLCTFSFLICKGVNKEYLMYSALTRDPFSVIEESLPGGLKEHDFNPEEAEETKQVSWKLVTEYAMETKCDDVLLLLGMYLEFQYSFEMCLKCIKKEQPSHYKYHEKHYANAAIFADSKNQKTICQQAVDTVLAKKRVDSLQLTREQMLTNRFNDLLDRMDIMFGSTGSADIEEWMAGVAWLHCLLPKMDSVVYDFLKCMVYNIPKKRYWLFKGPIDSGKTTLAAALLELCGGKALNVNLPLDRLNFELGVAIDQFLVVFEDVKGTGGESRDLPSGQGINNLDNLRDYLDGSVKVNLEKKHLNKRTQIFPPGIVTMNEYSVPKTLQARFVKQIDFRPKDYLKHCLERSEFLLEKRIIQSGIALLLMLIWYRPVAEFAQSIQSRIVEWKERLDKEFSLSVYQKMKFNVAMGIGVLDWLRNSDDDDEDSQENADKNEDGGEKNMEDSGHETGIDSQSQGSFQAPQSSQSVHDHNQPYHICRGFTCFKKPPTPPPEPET

[4] = molecular target: T1, Mannose-6-phosphate isomerase (Homo sapiens, UniProt P34949); experiment: MPI enzyme activity inhibition – biochemical, fluorescence intensity, coupled assay, primary screen (AID 1209)
T1 sequence (P34949 whole entry): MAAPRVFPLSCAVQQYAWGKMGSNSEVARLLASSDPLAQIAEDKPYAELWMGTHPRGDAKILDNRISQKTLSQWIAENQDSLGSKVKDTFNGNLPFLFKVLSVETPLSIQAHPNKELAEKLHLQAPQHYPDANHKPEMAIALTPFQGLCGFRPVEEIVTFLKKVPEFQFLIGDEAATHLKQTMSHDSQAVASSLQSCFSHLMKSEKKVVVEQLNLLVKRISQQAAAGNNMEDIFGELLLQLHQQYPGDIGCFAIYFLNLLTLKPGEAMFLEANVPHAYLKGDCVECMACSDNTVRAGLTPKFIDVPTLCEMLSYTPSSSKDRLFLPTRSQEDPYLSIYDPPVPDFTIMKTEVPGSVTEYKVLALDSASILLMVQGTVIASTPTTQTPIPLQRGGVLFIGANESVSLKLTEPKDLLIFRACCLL

[5] = molecular target: Induced myeloid leukemia cell differentiation protein Mcl-1 (Homo sapiens, UniProt Q07820); experiment: blockers of MCL1 binding to BIM peptide – biochemical, fluorescence polarization, BIM-BH3 peptide, 1536-well, dose response (AID 2217)
Chain of Induced myeloid leukemia cell differentiation protein Mcl-1 (Q07820 whole entry): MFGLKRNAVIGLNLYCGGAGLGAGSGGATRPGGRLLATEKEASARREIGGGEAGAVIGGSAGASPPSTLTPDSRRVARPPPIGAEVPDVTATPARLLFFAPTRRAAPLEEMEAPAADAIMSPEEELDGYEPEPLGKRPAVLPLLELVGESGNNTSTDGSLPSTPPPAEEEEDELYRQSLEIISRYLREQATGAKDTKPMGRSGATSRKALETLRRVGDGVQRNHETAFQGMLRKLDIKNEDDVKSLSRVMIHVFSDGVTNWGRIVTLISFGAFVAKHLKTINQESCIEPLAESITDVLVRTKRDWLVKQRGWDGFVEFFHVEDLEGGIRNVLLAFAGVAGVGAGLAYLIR

[6] = molecular target: Bcl-2-like protein 1 (Homo sapiens, UniProt Q07817); experiment: blockers of BCLXL peptide binding – biochemical, fluorescence polarization, 1536-well, selectivity assay for MCL1 inhibitor project, dose response (AID 2218)
Chain of Bcl-2-like protein 1 (Q07817 whole entry): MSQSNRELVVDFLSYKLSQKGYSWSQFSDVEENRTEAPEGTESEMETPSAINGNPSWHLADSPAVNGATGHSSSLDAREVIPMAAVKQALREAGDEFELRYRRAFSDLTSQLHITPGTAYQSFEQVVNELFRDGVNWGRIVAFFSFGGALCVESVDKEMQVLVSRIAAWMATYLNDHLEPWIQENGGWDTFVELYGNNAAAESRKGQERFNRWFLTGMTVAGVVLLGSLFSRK

[7] = molecular target: T1, Mannose-6-phosphate isomerase; experiment: MPI inhibition at elevated mannose 6-phosphate – biochemical, fluorescence intensity, high mannose 6-phosphate, primary screen (AID 1220)
[8] = molecular target: Dual specificity tyrosine-phosphorylation-regulated kinase 1A (Rattus norvegicus, UniProt Q63470); type: biochemical, Homo sapiens
[9] = molecular target: T2, Rac GTPase-activating protein 1 (Homo sapiens, UniProt Q9H0H5); experiment: blockers of MgcRacGAP-driven Rac1 GTP hydrolysis – biochemical, ADP Hunter fluorescence, primary and confirmatory, confirmation (AID 624330); type: functional
T2 sequence (Q9H0H5 whole entry): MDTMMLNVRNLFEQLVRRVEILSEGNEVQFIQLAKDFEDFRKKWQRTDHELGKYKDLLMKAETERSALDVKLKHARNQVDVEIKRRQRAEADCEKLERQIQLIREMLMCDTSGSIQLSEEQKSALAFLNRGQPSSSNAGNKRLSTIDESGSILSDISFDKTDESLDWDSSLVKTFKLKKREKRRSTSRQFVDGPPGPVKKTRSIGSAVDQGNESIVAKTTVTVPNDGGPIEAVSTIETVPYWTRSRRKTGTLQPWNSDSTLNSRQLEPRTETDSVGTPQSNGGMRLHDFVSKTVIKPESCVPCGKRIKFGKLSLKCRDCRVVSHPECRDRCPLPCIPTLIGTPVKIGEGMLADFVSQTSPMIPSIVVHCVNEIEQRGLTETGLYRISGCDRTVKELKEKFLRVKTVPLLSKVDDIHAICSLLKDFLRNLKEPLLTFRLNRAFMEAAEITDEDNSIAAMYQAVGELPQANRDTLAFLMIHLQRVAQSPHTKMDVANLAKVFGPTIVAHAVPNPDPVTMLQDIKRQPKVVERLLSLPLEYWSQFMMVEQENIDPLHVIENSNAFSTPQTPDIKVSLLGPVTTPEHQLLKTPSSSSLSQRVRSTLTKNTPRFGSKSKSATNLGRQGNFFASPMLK

[10] = molecular target: T3, Histone-lysine N-methyltransferase NSD2 (Homo sapiens, UniProt O96028); type: biochemical
T3 sequence (O96028 whole entry): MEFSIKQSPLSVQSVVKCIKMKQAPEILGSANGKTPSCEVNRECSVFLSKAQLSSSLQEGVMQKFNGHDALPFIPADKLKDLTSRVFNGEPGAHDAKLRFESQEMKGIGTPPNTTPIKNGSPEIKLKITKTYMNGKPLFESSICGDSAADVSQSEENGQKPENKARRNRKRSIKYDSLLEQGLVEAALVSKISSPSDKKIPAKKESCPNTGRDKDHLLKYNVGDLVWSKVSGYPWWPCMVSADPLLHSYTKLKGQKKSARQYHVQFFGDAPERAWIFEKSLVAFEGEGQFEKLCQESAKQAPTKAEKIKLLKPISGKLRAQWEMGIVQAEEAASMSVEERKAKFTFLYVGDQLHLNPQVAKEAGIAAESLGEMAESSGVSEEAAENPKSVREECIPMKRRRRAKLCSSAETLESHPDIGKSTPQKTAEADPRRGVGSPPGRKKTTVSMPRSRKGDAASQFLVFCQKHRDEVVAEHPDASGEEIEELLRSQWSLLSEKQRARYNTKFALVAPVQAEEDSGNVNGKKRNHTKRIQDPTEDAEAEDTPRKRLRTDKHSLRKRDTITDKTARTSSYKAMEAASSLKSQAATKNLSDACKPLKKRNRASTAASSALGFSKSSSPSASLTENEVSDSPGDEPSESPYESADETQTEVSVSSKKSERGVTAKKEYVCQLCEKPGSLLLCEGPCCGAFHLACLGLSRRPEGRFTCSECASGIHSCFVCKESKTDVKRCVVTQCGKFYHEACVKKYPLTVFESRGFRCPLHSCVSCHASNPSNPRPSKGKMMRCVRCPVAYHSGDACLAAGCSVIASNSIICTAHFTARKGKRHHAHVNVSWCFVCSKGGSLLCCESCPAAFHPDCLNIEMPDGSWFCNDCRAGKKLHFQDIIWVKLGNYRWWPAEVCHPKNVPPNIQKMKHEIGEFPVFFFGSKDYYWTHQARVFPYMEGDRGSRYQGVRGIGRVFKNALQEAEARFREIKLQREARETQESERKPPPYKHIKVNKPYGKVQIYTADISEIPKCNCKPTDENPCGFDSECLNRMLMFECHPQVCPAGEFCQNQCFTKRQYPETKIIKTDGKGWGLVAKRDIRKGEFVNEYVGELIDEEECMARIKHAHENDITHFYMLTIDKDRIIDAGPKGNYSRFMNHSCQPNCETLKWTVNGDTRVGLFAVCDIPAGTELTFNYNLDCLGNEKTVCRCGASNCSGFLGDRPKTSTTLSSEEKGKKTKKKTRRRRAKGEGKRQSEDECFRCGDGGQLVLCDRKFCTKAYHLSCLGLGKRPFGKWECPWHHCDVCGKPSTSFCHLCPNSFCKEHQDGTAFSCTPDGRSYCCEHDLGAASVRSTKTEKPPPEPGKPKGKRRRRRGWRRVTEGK

[11] = molecular target: Interleukin-8 (Homo sapiens, UniProt P10145); experiment: SAR analysis of tumor necrosis factor alpha (TNF-alpha) induced IL-8 secretion in MCF-7/NOD1 cells. [Related pubchem assays (depositor defined):AID1575, AID2250, AID2260]; type: functional, cell-based
Chain of Interleukin-8 (P10145 whole entry): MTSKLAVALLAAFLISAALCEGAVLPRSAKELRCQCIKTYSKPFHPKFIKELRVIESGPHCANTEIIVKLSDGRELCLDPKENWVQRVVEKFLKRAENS

[12] = molecular target: Neuropeptide Y receptor type 2 (Homo sapiens, UniProt P49146); experiment: Fluorescence-based counterscreen for agonists of NPY-Y1: cell-based high-throughput dose response assay for agonists of NPY-Y2.; type: functional
Chain of Neuropeptide Y receptor type 2 (P49146 whole entry): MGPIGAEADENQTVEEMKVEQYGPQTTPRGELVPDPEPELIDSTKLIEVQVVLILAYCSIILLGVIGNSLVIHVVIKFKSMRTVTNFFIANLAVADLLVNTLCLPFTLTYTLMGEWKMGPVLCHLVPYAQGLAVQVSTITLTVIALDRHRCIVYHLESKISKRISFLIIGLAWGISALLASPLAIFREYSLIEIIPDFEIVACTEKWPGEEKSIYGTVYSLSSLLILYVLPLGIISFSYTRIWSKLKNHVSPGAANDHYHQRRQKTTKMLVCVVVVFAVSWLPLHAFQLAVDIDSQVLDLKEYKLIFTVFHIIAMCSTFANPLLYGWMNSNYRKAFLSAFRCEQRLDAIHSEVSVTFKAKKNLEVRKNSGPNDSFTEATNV

[13] = system: HEK293; experiment: Fluorescence-based counterscreen for potentiators or agonists of NPY-Y1: cell-based high-throughput dose response assay for inhibitors of cyclic nucleotide gated ion channel (CNGC) activity. In this assay, the parental HEK293 cell line transfected with a cyclic-nucleotide gated ion channel (CNGC)-based cAMP sensor is used to measure inhibition of isoproterenol-induced CNGC …; type: functional; settings: Homo sapiens
[14] = molecular target: Neuropeptide Y receptor type 1 (Homo sapiens, UniProt P25929); experiment: Fluorescence-based dose response cell-based high-throughput screening assay for agonists of NPY-Y1. [Related pubchem assays: 1697 (Screening assay (NPY-Y1 agonists).), 1359 (Screening assay (NPY-Y2 potentiators or agonists).), 1304 (Screening assay (NPY-Y1 potentiators or agonists).), 1704 (Screening assay (CNGC inhibitors).), 1791 (Summary AID.)]; type: functional
Chain of Neuropeptide Y receptor type 1 (P25929 whole entry): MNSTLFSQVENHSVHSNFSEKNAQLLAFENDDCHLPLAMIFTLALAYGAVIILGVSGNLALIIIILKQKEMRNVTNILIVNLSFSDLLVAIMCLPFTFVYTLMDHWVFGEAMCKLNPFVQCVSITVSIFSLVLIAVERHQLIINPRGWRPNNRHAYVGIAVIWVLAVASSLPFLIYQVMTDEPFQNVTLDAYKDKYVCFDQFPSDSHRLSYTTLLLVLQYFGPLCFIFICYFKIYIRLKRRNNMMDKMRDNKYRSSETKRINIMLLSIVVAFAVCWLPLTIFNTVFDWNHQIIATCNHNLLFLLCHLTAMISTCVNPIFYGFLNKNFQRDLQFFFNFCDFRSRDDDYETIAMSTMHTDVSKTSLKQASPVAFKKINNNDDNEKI

[15] = system: Vero; experiment: cells; type: functional, cell-based; settings: Chlorocebus sabaeus
[16] = system: Vero; experiment: cells; type: functional; settings: Chlorocebus sabaeus
[17] = molecular target: T4, Long-chain-fatty-acid--AMP ligase FadD28 (Mycobacterium tuberculosis, UniProt P9WQ59); experiment: Fluorescence polarization aasay to screen for inhibitors that compete for the binding of FadD28 to a bisubstrate Measured in Biochemical System Using Plate Reader - 2147-01_Inhibitor_Dose_CherryPick_Activity.; type: functional, Mycobacterium tuberculosis H37Rv
T4 sequence (P9WQ59 whole entry): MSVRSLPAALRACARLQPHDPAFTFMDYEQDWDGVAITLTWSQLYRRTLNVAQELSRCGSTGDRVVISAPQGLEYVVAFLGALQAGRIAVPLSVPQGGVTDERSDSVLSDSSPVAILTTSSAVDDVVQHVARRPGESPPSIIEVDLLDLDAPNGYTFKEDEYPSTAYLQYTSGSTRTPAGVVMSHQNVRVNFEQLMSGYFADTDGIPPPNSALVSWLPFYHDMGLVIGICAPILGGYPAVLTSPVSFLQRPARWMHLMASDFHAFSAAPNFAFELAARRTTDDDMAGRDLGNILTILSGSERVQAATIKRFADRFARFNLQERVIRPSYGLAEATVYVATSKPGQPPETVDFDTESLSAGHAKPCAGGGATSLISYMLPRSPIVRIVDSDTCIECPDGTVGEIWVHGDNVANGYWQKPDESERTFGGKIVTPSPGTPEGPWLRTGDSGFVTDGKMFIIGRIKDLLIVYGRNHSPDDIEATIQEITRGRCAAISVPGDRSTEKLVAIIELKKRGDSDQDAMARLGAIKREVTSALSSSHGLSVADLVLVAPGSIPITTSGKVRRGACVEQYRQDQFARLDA

[18] = viability loss in HepG2 hepatoma cells – cell-based, ATP luminescence, cherry-pick, activator set 2, cytotoxicity control, dose response (AID 1053143); type: functional

Chain of Procathepsin L (P07711 whole entry): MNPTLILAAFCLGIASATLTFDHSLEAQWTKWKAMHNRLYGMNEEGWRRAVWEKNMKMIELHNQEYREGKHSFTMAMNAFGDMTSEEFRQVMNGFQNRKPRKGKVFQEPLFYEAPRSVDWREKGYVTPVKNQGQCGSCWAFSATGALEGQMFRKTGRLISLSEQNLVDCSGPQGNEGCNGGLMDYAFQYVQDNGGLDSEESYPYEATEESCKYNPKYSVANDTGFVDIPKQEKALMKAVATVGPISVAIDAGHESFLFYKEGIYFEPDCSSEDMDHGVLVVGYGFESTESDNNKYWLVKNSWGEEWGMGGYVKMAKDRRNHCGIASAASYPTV
Chain of Aspartyl aminopeptidase (Q8I2J3 whole entry): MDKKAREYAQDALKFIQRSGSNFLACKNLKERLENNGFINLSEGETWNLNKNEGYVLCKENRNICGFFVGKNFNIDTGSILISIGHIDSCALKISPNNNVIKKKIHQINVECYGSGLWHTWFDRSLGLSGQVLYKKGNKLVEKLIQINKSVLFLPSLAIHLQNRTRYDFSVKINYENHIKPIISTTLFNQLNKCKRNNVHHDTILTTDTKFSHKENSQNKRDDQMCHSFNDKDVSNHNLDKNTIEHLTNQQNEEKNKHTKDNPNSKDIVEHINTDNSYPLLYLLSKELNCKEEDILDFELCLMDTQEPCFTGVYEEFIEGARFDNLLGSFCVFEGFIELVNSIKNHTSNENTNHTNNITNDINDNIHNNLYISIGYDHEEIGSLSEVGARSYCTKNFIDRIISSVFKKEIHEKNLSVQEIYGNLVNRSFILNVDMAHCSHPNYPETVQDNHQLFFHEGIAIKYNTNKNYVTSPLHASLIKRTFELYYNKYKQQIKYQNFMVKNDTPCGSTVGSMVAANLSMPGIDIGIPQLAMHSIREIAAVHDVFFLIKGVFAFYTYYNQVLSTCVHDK

With `Oc1ccc(C2=Nn3c(nnc3-c3ccco3)SC2)cc1O` the IC50 [1] was 1.84 µM (active), the IC50 [2] was > 59.6 µM (not active) and the IC50 [3] was 3.26 µM (active). For the same compound, the IC50 [4] was > 50 µM (not active), the IC50 [5] was 6.16 µM (active) and the IC50 [6] was 68.7 µM (not active). The IC50 [7] was > 50 µM (not active), the AC50 [8] was 4.01 µM (active) and the IC50 [9] was 12.2 µM (active). For the same compound, the AC50 [10] was 6.4 µM (active).

For `COc1ccc(S(=O)(=O)n2c(N)nc3ccccc32)cc1`, the IC50 [11] was > 5 µM (inactive).

With `Cn1cc([N+](=O)[O-])c(C(=O)Nc2ccc(C3CCCCC3)cc2)n1` the EC50 [12] was 12.1 µM (not active), the IC50 [13] was 8.17 µM (active) and the EC50 [14] was 9.71 µM (active). For the same compound, the IC50 [15] was 9.92 µM (active), the CC50 [16] was > 25 µM (active) and the AC50 [17] was > 100 µM (inactive). For the same compound, the AC50 [18] was 18.5 µM (active).
